Results on one compound are retold here after ChEMBL document CHEMBL3525962, “Novel bioactivation mechanism of reactive metabolite formation from phenyl methyl-isoxazoles” (Drug Metab Dispos, 2012).

This series relates to Liver microsome. Briefly: Drug metabolism in human liver microsomes assessed as oxidative metabolite formation at 10 uM by LC-MS analysis in presence of NADPH. The class given is ADME.

For the compound `Cc1onc(-c2ccccc2)c1NC(=O)NCc1ccc(Cl)cc1Cl`, the Drug metabolism entry is listed as “metabolite_detected”.
